The record followed here is publication PMC3849272, “Strong cellulase inhibitors from the hydrothermal pretreatment of wheat straw” (Biotechnology for Biofuels, 2013).

In experiment [1] the target is T1, TrCel7A (Trichoderma reesei, UniProt P62694).
T1 construct: gene cbh1; native enzyme purified from culture filtrate of T. reesei QM 9414; secreted, signal peptide removed; about 50 kDa
T1 sequence (P62694 18-513): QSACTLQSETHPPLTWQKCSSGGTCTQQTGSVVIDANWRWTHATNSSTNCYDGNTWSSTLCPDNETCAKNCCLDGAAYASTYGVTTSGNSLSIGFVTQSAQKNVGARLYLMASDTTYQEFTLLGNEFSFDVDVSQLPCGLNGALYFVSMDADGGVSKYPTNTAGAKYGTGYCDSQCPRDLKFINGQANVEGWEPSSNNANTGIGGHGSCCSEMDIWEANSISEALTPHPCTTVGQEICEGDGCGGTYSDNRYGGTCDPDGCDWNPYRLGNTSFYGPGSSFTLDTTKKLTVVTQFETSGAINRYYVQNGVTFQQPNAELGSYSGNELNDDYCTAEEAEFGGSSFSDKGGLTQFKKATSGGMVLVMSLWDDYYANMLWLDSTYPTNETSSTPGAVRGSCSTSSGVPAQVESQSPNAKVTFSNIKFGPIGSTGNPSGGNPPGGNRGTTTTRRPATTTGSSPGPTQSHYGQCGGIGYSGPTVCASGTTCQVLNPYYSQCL
Nature of the experiment: inhibition of 4-methylumbelliferyl-beta-lactoside hydrolysis, fluorescence, initial rates. Format: biochemical. The conditions noted are these: 5 μM MUL, 10 nM enzyme, 50 mM sodium acetate pH 5.0, BSA 0.1 g/l, 35°C.

In experiment [2] the target is T2, TrCel7B (Trichoderma reesei, UniProt P07981).
T2 construct: gene egl1; native enzyme purified from culture filtrate of T. reesei QM 9414; secreted, signal peptide removed
T2 sequence (P07981 23-459): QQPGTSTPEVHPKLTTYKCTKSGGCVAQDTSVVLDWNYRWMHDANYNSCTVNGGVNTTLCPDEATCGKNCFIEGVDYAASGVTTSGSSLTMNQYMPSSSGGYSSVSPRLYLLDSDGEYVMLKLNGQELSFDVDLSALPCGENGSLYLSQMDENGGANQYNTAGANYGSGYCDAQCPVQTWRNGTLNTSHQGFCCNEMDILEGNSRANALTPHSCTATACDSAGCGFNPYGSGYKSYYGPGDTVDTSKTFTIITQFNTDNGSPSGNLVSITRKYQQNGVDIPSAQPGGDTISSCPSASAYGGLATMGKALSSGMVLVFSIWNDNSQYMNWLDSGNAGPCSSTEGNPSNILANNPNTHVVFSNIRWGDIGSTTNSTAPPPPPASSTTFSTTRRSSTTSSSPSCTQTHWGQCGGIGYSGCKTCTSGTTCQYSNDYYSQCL
The description is as above. Format: biochemical. The conditions noted are these: 20 μM MUL, 10 nM enzyme, 50 mM sodium acetate pH 5.0, BSA 0.1 g/l, 35°C.

`OC[C@H]1O[C@@H](O[C@H]2[C@H](O)[C@@H](O)C(O)O[C@@H]2CO)[C@H](O)[C@@H](O)[C@@H]1O` (some centres unmarked) [cellobiose]: the IC50 in experiment [1] is 0.036 ± 0.006 mM; in experiment [2], 8.9 ± 0.4 mM.
